Experimental data reported in patent US7935706B2, “Nitrogen-containing heterocycle derivatives substituted with cyclic group” (Shionogi & Co., Ltd., priority 2006, dated 2011).
Read-outs that look alike come from different tables or passages of the source.

Assays:
[1] = biological target: T1, NR1/NR2B receptor (Rattus norvegicus, UniProt P35439+Q00960); assay: Test of binding with NMDA receptor (NR1/NR2B receptor): competition with [3H]-Ifenprodil on rat cerebral cortex membrane specimen
T1 construct: from tissue; host or cells: rat cerebral cortex membranes (male Slc: Wistar rat)
Experimental: Test of Binding with NMDR Receptor (NR1/NR2B Receptor)
Using Ifenprodil which is an antagonist specific for a NR1/NR2B subtype receptor as a ligand, an experiment of competition between a receptor and a test compound was performed.
Using a male Slc: Wistar rat as an animal, a brain was isolated after decapitation, and a cerebral cortex was fractionated. The cerebral cortex was homogenized with a 20-fold amount of an ice-cooled 50 mM Tris/HCl buffer (pH 7.4), and the homogenate was centrifuged at 4° C. and 27,500×g for 10 minutes. The resulting precipitate was suspended in the same buffer, and this was again centrifuged. This operation was repeated for three times, the resulting precipitate was suspended in a buffer, and this was stored at −80° C. Immediately before an experiment, the frozen suspension was thawed at room temperature, this was centrifuged at 4° C. and 27,500×g for 10 minutes, and the resulting precipitate was suspended in a buffer. Further, the suspension was diluted 10-fold with a buffer, and this was used as a membrane specimen in an experiment. In a binding experiment, to 470 μl of the membrane specimen were added […] of each of test compounds having different concentrations, 10 μl of a labeled ligand [^3H]-Ifenprodil and 10 μl GBR-12909, followed by incubation at an ice temperature for 120 minutes. A concentration of [^3H]-Ifenprodil of the labeled ligand was finally 5 nM, and a concentration of GBR-12909 was finally 3 μM. For measuring a total binding amount, DMSO as a solvent was used and, for measuring a non-specific binding amount, 100 μM Ifenprodil was used. GBR-12909 was added in order to block binding of [^3H]-Ifenprodil to non-polyamine-sensitive site. After incubation, a bound formand a free foramwere separated using Whatman GF/C filter (manufactured by Whatman), and the filter was washed with 2.5 ml ice-cooled buffer four times. The filter was immersed in liquid scintillation (Cryasol I, manufactured by Nacalai tesque), and radioactivity (dpm) was measured with a liquid scintillation counter. From a measured value, a binding inhibition rate (%) was obtained by the following equation, and a dose at which binding is inhibited 50% (IC50) was calculated. A formula of GBR-12909 (vanoxerine) is shown below.
Binding inhibition rate(%)=100−[(binding amount in the presence of test compound−non-specific binding amount)/(total binding amount−non-specific binding amount)]×100

[2] = biological target: T2, NMDA receptor (NR1 subunit and NR2B subunit) (Mus musculus, UniProt P35438+Q01097); assay: Measurement of expression of NMDA receptor and Ca ion influx amount (glutamic acid/glycine-induced, HEK293 cell co-expressing NR1 and NR2B subunits, Fluo-3/AM); type: cell-based
T2 construct: expressed in transfected cells; host or cells: HEK293 cells, transient transfection with pcDNA3.1 plasmids
Experimental: Measurement of Expression of NMDA Receptor and Ca Ion Influx Amount
A complementary DNA (cDNA) of a mouse NMDA receptor subunit was transiently introduced into a HEK293 cell and, after 1 day from introduction, change in a glutamic acid/glycine-induced intracelluar Ca amount was measured using a Ca ion reactive fluorescent coloring matter.
The HEK293 cell was cultured, and passaged using a modified Dulbecco's Eagle medium (DMEM, low glucose).
The HEK293 cell (20,000/well) was seeded on a 96-well plate, a NR1 subunit and a NR2B subunit of the NMDA receptor incorporated into the pcDNA3.1 plasmid were transiently introduced into a cell, and the subunits were co-expressed. An introduction amount of a DNA was 0.025 μg in the case of the NR1 subunit, and 0.075 μg in the case of NR2B subunit per well. For the cell after introduction, cell death was inhibited using 50 μM of the NMDA receptor antagonist MK-801.
For adjusting a test compound and washing a cell, Krebs/Ringer/Hepes buffer (KRH, Ca: 5 mM) was used.
After 1 day from introduction, the NMDA receptor antagonist MK-801 was washed out using the KRH buffer, and a Ca ion indication fluorescent coloring matter Fluo-3/AM was made to be taken into the cell. Ca ion influx was induced with 20 μM glutamic acid/2 μM glycine. Change in a fluorescent amount due to Ca ion influx into the cell was measured at excitation of 480 nm using a fluorescent imaging system FDSS 3000.
From a measured value of the test compound, a Ca ion influx inhibition rate (%) was obtained by the following equation, and a dose at which influx is inhibited 50% (IC50) was calculated.
Ca ion influx inhibition rate(%)=100−[(fluorescent amount in the presence of test compound−background fluorescent amount)/(total fluorescent amount−background fluorescent)]×100

[3] = [3H]-Ifenprodil 5 nM, GBR-12909 3 μM, rat cerebral cortex membranes, ice temperature 120 minutes, read-out: NR2B (IC50 μM)
[4] = Ca ion influx induced with 20 μM glutamic acid/2 μM glycine, HEK293 cell with mouse NR1/NR2B, read-out: Ca2+ IC50
[5] = same binding test, read-out: IC50 (binding with NR1/NR2B receptor)
[6] = same Ca ion influx test, read-out: IC50 (Ca ion influx inhibition)

T1 sequence (Q00960 27-1482, other chains not shown): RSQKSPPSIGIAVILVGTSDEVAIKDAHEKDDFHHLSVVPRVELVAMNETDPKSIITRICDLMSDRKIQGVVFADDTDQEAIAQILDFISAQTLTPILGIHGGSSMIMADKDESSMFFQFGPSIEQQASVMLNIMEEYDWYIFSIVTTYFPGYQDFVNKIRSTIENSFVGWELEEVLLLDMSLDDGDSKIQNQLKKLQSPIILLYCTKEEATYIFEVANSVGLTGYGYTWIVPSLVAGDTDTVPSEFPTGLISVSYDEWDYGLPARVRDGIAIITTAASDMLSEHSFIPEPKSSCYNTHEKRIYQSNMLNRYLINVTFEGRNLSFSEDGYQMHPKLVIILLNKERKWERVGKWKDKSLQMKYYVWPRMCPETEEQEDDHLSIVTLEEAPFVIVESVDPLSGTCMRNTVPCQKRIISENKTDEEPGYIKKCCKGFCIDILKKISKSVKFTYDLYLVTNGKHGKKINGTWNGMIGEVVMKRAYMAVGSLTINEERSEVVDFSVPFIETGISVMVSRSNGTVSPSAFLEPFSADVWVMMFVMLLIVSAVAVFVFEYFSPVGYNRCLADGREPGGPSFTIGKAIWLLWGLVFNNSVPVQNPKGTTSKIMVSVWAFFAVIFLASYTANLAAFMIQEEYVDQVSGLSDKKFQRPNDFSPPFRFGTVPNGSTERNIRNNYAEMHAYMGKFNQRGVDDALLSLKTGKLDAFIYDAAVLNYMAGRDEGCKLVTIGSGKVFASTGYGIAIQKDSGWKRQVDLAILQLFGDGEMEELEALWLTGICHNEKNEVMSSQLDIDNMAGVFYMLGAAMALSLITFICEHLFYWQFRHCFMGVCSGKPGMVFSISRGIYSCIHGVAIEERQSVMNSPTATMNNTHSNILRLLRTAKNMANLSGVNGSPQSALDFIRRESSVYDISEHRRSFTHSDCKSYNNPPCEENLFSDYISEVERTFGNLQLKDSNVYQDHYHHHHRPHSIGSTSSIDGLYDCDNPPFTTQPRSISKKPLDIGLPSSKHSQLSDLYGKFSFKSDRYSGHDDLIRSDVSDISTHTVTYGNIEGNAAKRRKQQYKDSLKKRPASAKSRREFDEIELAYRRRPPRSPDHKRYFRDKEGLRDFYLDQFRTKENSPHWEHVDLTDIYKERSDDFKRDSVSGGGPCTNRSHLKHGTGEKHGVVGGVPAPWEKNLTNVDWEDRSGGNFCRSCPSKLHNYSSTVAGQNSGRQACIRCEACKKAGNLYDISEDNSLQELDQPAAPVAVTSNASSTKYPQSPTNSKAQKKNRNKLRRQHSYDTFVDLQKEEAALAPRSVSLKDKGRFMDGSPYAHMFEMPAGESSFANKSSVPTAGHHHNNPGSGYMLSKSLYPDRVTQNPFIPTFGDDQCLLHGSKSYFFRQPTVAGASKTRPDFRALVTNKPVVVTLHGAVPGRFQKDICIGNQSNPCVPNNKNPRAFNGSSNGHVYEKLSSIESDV
T2 sequence (Q01097 27-1482, other chains not shown): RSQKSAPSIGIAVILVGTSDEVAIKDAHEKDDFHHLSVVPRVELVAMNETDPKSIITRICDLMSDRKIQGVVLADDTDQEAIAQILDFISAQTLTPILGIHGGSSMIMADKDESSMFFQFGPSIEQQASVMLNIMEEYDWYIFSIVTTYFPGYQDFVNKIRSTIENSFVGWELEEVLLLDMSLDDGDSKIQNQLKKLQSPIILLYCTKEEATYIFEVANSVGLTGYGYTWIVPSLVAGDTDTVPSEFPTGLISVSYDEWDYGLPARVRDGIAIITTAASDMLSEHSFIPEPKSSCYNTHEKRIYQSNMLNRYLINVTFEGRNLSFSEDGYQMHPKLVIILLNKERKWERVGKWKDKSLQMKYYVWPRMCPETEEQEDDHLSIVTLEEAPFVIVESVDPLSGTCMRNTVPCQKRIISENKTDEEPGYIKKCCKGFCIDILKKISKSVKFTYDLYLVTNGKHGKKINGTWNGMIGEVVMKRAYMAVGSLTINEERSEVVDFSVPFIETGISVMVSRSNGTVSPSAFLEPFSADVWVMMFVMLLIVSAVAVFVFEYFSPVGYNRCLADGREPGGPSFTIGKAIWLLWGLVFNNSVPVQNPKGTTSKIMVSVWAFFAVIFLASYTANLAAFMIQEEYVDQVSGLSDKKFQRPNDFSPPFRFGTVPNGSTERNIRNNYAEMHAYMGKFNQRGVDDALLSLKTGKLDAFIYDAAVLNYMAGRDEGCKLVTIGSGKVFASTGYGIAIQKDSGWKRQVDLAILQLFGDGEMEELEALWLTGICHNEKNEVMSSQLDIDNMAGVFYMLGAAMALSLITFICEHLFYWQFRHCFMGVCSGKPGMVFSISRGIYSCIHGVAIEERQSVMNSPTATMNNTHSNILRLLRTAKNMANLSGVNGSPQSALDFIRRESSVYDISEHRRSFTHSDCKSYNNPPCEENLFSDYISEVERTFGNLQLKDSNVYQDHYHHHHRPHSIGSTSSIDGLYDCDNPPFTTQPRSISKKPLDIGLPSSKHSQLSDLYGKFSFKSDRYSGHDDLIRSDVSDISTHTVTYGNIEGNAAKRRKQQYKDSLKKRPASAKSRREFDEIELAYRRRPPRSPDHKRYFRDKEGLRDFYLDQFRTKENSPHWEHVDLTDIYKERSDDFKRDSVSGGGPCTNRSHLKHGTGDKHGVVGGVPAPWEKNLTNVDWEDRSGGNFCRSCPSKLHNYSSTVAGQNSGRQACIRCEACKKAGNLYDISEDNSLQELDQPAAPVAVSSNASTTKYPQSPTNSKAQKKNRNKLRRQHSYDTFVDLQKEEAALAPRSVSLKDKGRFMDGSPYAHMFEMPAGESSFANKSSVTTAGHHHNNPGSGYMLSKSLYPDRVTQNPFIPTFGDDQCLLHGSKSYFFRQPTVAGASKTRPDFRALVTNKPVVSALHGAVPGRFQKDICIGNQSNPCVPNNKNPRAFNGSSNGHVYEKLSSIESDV

IC50 [1, 3] [µM]	melting point	IC50 [2, 4] [nM]	IC50 [1, 5] [µM]	IC50 [2, 6] [nM]	SMILES
0.043	236 to 238 °C (dec.)	20	–	–	O=C(NCCC1CCN(c2ccc(Br)cc2)CC1)c1ccc(=O)[nH]c1 [Compound I-5]
0.09	219 to 220 °C	25	–	–	O=C(C=C1CCN(c2ccc(C(F)(F)F)cn2)CC1)Nc1ccc2[nH]c(=O)sc2c1 [Compound I-66]
–	107 to 108 °C	–	≤ 0.1	–	C[C@@H]1CN(C(=O)C(=O)Nc2ccc3[nH]c(=O)oc3c2)CCN1c1ccc(F)c(Cl)c1 [Compound I-206]
0.033	232 to 233 °C (dec.)	14	–	–	O=C(NCCC1CCN(c2ccc(C(F)(F)F)cc2)CC1)c1ccc(=O)[nH]c1 [Compound I-2]
–	241 to 243 °C	–	≤ 0.1	–	O=C(Nc1ccc2[nH]c(=O)oc2c1)C(=O)N1CCN(c2ccc(Cl)cn2)CC1 [Compound I-204]
–	123 to 125 °C	–	≤ 0.1	≤ 100	COc1ccc(N2CCN(C(=O)C(=O)Nc3ccc4[nH]c(=O)oc4c3)[C@H](C)C2)cc1Cl [Compound I-249]
0.043	232 to 234 °C	–	–	–	O=C(NCCC1CCN(c2ccc(Cl)cc2)CC1)c1ccc(=O)[nH]c1 [Compound I-1]
–	209 to 211 °C	–	≤ 0.1	–	O=C(C=C1CCN(c2ccc(F)c(Cl)c2)CC1)Nc1ccc2[nH]c(=O)oc2c1 [Compound I-205]
–	224 to 226 °C	–	≤ 0.1	–	COc1ccc(N2CCN(C(=O)C(=O)Nc3ccc4[nH]c(=O)oc4c3)CC2)cc1Cl [Compound I-247]
–	230 to 232 °C	–	≤ 0.1	≤ 100	O=C(NCCC1CCN(c2ccc(Cl)c(F)c2)CC1)c1ccc(=O)[nH]c1 [Compound I-208]
–	197 to 198 °C	–	≤ 0.1	≤ 100	C[C@@H]1CN(C(=O)C(=O)Nc2ccc3[nH]c(=O)oc3c2)CCN1c1ccc(C(F)(F)F)cn1 [Compound I-209]
